The first assay concerns the target T1, Tumor necrosis factor receptor superfamily member 16 (Homo sapiens) (UniProt P08138).
T1 sequence (whole entry): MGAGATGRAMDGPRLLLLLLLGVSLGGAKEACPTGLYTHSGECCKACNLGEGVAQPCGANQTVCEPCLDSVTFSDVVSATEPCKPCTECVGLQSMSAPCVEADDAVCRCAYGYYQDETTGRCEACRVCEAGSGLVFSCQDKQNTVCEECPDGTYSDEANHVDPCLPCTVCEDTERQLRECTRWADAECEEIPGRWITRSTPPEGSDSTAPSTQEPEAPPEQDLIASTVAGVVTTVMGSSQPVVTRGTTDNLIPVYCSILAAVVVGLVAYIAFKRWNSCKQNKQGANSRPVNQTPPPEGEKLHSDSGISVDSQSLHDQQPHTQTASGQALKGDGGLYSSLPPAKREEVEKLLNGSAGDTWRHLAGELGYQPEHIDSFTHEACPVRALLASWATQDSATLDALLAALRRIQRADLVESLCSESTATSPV
In words: Percent inhibition of [125I]- NGF binding to extracellular domain of p75 receptor at 10 uM.
`Cc1ccc(C(=O)Nc2cccc3nc(C(=O)O)cc(O)c23)cc1` yielded an inhibition of 38%. In turn, `COc1cc(C(=O)O)nc2ccc(NC(=O)c3ccc(C)cc3)cc12` gave an inhibition of 29%. Regarding `Nc1cccc2nc(C(=O)O)cc(O)c12`, the inhibition amounted to 50%. Still for that read-out and setting: in the case of `COc1cc(C(=O)O)nc2ccc(N)cc12` it was 28%. Still for that read-out and setting: in the case of `Nc1ccc2c(O)cc(C(=O)O)nc2c1` it was 37%.

Another assay has as its target T2, Tumor necrosis factor receptor superfamily member 16 (Homo sapiens, UniProt P08138).
T2 sequence (P08138 whole entry): T1 sequence (whole entry)
In words: Inhibition of [125I]- NGF binding to extracellular domain of p75 receptor; IA=Inactive.
Turning to `O=C(O)c1cc(O)c2cc([N+](=O)[O-])ccc2n1`, the IC50 entry is “Not Active”. As to `Cc1ccc(C(=O)Nc2ccc3c(c2)c(=O)cc(C(=O)O)n3C)cc1`, the concentration for half-maximal inhibition (IC50) entry is on record as “Not Active”. `Cn1c(C(=O)O)cc(=O)c2cc(N)ccc21`: the IC50 entry is recorded as “Not Active”.

As for `O=C(O)c1cc(O)c2c(Cl)cc(Cl)cc2n1`, the half-inhibitory concentration (IC50) result is recorded as “Not Active”.

As to `Cc1ccc(C(=O)Nc2ccc3nc(C(=O)O)cc(O)c3c2)cc1`, the IC50 entry is given as “Not Active”. On to `Cc1ccc(C(=O)Nc2ccc3c(O)cc(C(=O)O)nc3c2)cc1`, for which the half-inhibitory concentration (IC50) entry is recorded as “Not Active”.

`O=C(O)c1ccc2nc(C(=O)O)cc(O)c2c1`: the IC50 result is reported as “Not Active”. In the case of `O=C(O)c1cc(O)c2c(C(=O)O)cccc2n1`, the IC50 result is listed as “Not Active”. Still for that read-out and setting: as for `O=C(O)c1cc(=O)c2ccccc2[nH]1` [TRANSTORINE], the entry is “Not Active”. The same measure, in the same setting: as for `NC(=O)c1ccc2nc(C(=O)O)cc(O)c2c1`, the entry is “Not Active”; as for `O=C(O)c1ccc2c(O)cc(C(=O)O)nc2c1`, “Not Active”.

The target of the next assay is T2, Tumor necrosis factor receptor superfamily member 16. In words: Inhibition of [125I]- NGF binding to extracellular domain of p75 receptor.
With `Cn1c2ccc(NC(=O)c3ccccc3)cc2c(=O)n2nc(C(=O)O)cc12`, the IC50 turned out to be 0.2 µM. This lies in the sub-micromolar range. In turn, `COC(=O)c1c(C)sc2c(O)cc(C(=O)O)nc12` came in with a half-inhibitory concentration (IC50) of 2.3 µM. Consider `Nc1ccc2nc(C(=O)O)cc(O)c2c1`, for which the IC50 is 3.1 µM. On to `COC(=O)c1c(C)sc2c(O)cc(C(=O)Nn3cnnn3)nc12`, for which the IC50 worked out at 1.3 µM.

These data come from ChEMBL document CHEMBL1128178, “Kynurenic acid derivatives inhibit the binding of nerve growth factor (NGF) to the low-affinity p75 NGF receptor” (J Med Chem, 1995).
